Assay results as given in patent publication US20230142565A1, “MICROBIOCIDAL QUINOLINE DIHYDRO-(THIAZINE)OXAZINE DERIVATIVES” (SYNGENTA CROP PROTECTION AG, priority 2020, published 2023).

How the values were obtained:
[1] = system: Botryotinia fuckeliana (Botrytis cinerea); assay: Botryotinia fuckeliana (Botrytis cinerea) / liquid culture (gray mould); type: cell-based; details: inhibition of growth determined photometrically 3-4 days after application, compared to untreated control
Experimental: Botryotinia fuckeliana (Botrytis cinerea)/Liquid Culture (Gray Mould) Conidia of the fungus from cryogenic storage are directly mixed into nutrient broth (Vogels broth). After placing a (DMSO) solution of test compound into a microtiter plate (96-well format), the nutrient broth containing the fungal spores is added. The test plates are incubated at 24° C. and the inhibition of growth is determined photometrically 3-4 days after application.

[2] = system: Monographella nivalis (Microdochium nivale); assay: Monographella nivalis (Microdochium nivale) / liquid culture (foot rot cereals); type: cell-based; details: inhibition of growth determined photometrically 4-5 days after application, compared to untreated control
Fusarium culmorum = assay: microbe, parasite or virus in culture; type: cell-based; details: read-out: control of Fusarium culmorum
[3] = system: Mycosphaerella graminicola (Septoria tritici); assay: Mycosphaerella graminicola (Septoria tritici) / liquid culture (Septoria blotch); type: cell-based; details: Zymoseptoria tritici, inhibition of growth determined photometrically 4-5 days after application, compared to untreated control

Q: For `CC1(C)CC(Cc2cnccn2)N=C(c2cnc3c(F)c(F)ccc3c2)S1` (stereo not drawn) [E.05, 2-(7,8-difluoro-3-quinolyl)-6,6-dimethyl-4-(pyrazin-2-ylmethyl)-4,5-dihydro-1,3-thiazine], which inhibition of growth at 20 ppm [1] is on record?
A: The inhibition of growth at 20 ppm was at least 80%.

Q: And the inhibition of growth at 20 ppm [2]?
A: Its inhibition of growth at 20 ppm is at least 80%.

Q: With `CC1(C)CC(Cc2cccnc2)N=C(c2cnc3c(F)cccc3c2)O1` (stereo not drawn) [E.22, 2-(8-fluoro-3-quinolyl)-6,6-dimethyl-4-(3-pyridylmethyl)-4,5-dihydro-1,3-oxazine] as the molecule, how does the inhibition of growth at 20 ppm [1] read?
A: The inhibition of growth at 20 ppm was at least 80%.

Q: What about the inhibition of growth at 20 ppm [2] of the same molecule?
A: The inhibition of growth at 20 ppm was at least 80%.

Q: For `CC1(C)CC(Cc2cccnc2)N=C(c2cnc3c(F)c(F)ccc3c2)S1` (stereo not drawn) [E.06, 2-(7,8-difluoro-3-quinolyl)-6,6-dimethyl-4-(3-pyridylmethyl)-4,5-dihydro-1,3-thiazine], which inhibition of growth at 20 ppm (Fusarium culmorum) is on record?
A: Its inhibition of growth at 20 ppm is at least 80%.

Q: And the inhibition of growth at 20 ppm [1]?
A: The inhibition of growth at 20 ppm was at least 80%.

Q: And the inhibition of growth at 20 ppm [2]?
A: Its inhibition of growth at 20 ppm is at least 80%.

Q: With `CC1(C)CC(Cn2cc(C(F)(F)F)cn2)N=C(c2cnc3c(F)c(F)ccc3c2)S1` (stereo not drawn) [E.18, 2-(7,8-difluoro-3-quinolyl)-6,6-dimethyl-4-[[4-(trifluoromethyl)pyrazol-1-yl]methyl]-4,5-dihydro-1,3-thiazine] as the molecule, how does the inhibition of growth at 20 ppm [2] read?
A: The inhibition of growth at 20 ppm was at least 80%.

Q: Which melting point does the source give for `CC1(C)CC(Cc2cncs2)N=C(c2cnc3c(F)c(F)ccc3c2)O1` (stereo not drawn) [E.19, 2-(7,8-difluoro-3-quinolyl)-6,6-dimethyl-4-(thiazol-5-ylmethyl)-4,5-dihydro-1,3-oxazine] here?
A: Its melting point is 122 to 127 °C.

Q: And the inhibition of growth at 20 ppm [1]?
A: Its inhibition of growth at 20 ppm is at least 80%.

Q: What about the inhibition of growth at 20 ppm [2] of the same molecule?
A: Its inhibition of growth at 20 ppm is at least 80%.

Q: Which inhibition of growth at 6 ppm [3] does the source give for `CC1(C)CC(Cc2cncs2)N=C(c2cnc3c(F)c(F)ccc3c2)S1` (stereo not drawn) [E.16, 2-(7,8-difluoro-3-quinolyl)-6,6-dimethyl-4-(thiazol-5-ylmethyl)-4,5-dihydro-1,3-thiazine] here?
A: The inhibition of growth at 6 ppm was at least 80%.

Q: What about the inhibition of growth at 20 ppm [1] of the same molecule?
A: The inhibition of growth at 20 ppm was at least 80%.

Q: And the inhibition of growth at 20 ppm [2]?
A: The inhibition of growth at 20 ppm was at least 80%.

Q: For `CC1(C)CC(Cc2ccc(F)nc2)N=C(c2cnc3c(F)c(F)ccc3c2)S1` (stereo not drawn) [E.24, 2-(7,8-difluoro-3-quinolyl)-4-[(6-fluoro-3-pyridyl)methyl]-6,6-dimethyl-4,5-dihydro-1,3-thiazine], which inhibition of growth at 20 ppm (Fusarium culmorum) is on record?
A: The inhibition of growth at 20 ppm was at least 80%.

Q: What about the inhibition of growth at 20 ppm [1] of the same molecule?
A: Its inhibition of growth at 20 ppm is at least 80%.

Q: What about the inhibition of growth at 20 ppm [2] of the same molecule?
A: The inhibition of growth at 20 ppm was at least 80%.

Q: What does the source list for `CC1(C)CC(Cc2ccccn2)N=C(c2cnc3c(F)c(F)ccc3c2)O1` (stereo not drawn) [E.03, 2-(7,8-difluoro-3-quinolyl)-6,6-dimethyl-4-(2-pyridylmethyl)-4,5-dihydro-1,3-oxazine]?
A: melting point: 120 to 123 °C; inhibition of growth at 20 ppm [1]: ≥ 80%; inhibition of growth at 20 ppm [2]: ≥ 80%

Q: What does the source list for `CC1(C)CC(Cc2ccccn2)N=C(c2cnc3c(F)c(F)ccc3c2)S1` (stereo not drawn) [E.01, 2-(7,8-difluoro-3-quinolyl)-6,6-dimethyl-4-(2-pyridylmethyl)-4,5-dihydro-1,3-thiazine]?
A: inhibition of growth at 20 ppm (Fusarium culmorum): ≥ 80%; inhibition of growth at 20 ppm [1]: ≥ 80%; inhibition of growth at 20 ppm [2]: ≥ 80%

Q: With `CC1(C)CC(Cc2ccc(Cl)nc2)N=C(c2cnc3c(F)c(F)ccc3c2)O1` (stereo not drawn) [E.09, 4-[(6-chloro-3-pyridyl)methyl]-2-(7,8-difluoro-3-quinolyl)-6,6-dimethyl-4,6-dihydro-1,3-oxazine] as the molecule, how does the inhibition of growth at 6 ppm [3] read?
A: Its inhibition of growth at 6 ppm is at least 80%.

Q: And the inhibition of growth at 20 ppm [1]?
A: Its inhibition of growth at 20 ppm is at least 80%.

Q: What about the inhibition of growth at 20 ppm [2] of the same molecule?
A: Its inhibition of growth at 20 ppm is at least 80%.

Q: For `CC1(C)CC(Cn2cc(F)cn2)N=C(c2cnc3c(F)c(F)ccc3c2)S1` (stereo not drawn) [E.17, 2-(7,8-difluoro-3-quinolyl)-4-[(4-fluoropyrazol-1-yl)methyl]-6,6-dimethyl-4,5-dihydro-1,3-thiazine], which inhibition of growth at 20 ppm [1] is on record?
A: Its inhibition of growth at 20 ppm is at least 80%.

Q: What about the inhibition of growth at 20 ppm [2] of the same molecule?
A: Its inhibition of growth at 20 ppm is at least 80%.

Q: Which inhibition of growth at 6 ppm [3] does the source give for `CC1(C)CC(Cn2ccc(Cl)n2)N=C(c2cnc3c(F)c(F)ccc3c2)S1` (stereo not drawn) [E.11, 4-[(3-chloropyrazol-1-yl)methyl]-2-(7,8-difluoro-3-quinolyl)-6,6-dimethyl-4,5-dihydro-1,3-thiazine] here?
A: The inhibition of growth at 6 ppm was at least 80%.

Q: And the inhibition of growth at 20 ppm [1]?
A: Its inhibition of growth at 20 ppm is at least 80%.

Q: And the inhibition of growth at 20 ppm [2]?
A: Its inhibition of growth at 20 ppm is at least 80%.

Q: For `CC1(C)CC(Cn2ccc(C(F)F)n2)N=C(c2cnc3c(F)c(F)ccc3c2)S1` (stereo not drawn) [E.12, 4-[[3-(difluoromethyl)pyrazol-1-yl]methyl]-2-(7,8-difluoro-3-quinolyl)-6,6-dimethyl-4,5-dihydro-1,3-thiazine], which inhibition of growth at 6 ppm [3] is on record?
A: Its inhibition of growth at 6 ppm is at least 80%.

Q: And the inhibition of growth at 20 ppm [1]?
A: The inhibition of growth at 20 ppm was at least 80%.

Q: And the inhibition of growth at 20 ppm [2]?
A: The inhibition of growth at 20 ppm was at least 80%.

Q: What does the source list for `CC1(C)CC(Cc2cccc(F)n2)N=C(c2cnc3c(F)c(F)ccc3c2)O1` (stereo not drawn) [E.04, 2-(7,8-difluoro-3-quinolyl)-4-[(6-fluoro-2-pyridyl)methyl]-6,6-dimethyl-4,5-dihydro-1,3-oxazine]?
A: inhibition of growth at 20 ppm (Fusarium culmorum): ≥ 80%; melting point: 129 to 131 °C; inhibition of growth at 20 ppm [1]: ≥ 80%; inhibition of growth at 20 ppm [2]: ≥ 80%

Q: Which inhibition of growth at 20 ppm [1] does the source give for `CC1(C)CC(Cc2ccncc2)N=C(c2cnc3c(F)c(F)ccc3c2)S1` (stereo not drawn) [E.26, 2-(7,8-difluoro-3-quinolyl)-6,6-dimethyl-4-(4-pyridylmethyl)-4,5-dihydro-1,3-thiazine] here?
A: Its inhibition of growth at 20 ppm is at least 80%.

Q: What about the inhibition of growth at 20 ppm [2] of the same molecule?
A: The inhibition of growth at 20 ppm was at least 80%.

Q: Which inhibition of growth at 6 ppm [3] does the source give for `CC1(C)CC(Cn2cc(Cl)cn2)N=C(c2cnc3c(F)c(F)ccc3c2)S1` (stereo not drawn) [E.10, 4-[(4-chloropyrazol-1-yl)methyl]-2-(7,8-difluoro-3-quinolyl)-6,6-dimethyl-4,5-dihydro-1,3-thiazine] here?
A: Its inhibition of growth at 6 ppm is at least 80%.

Q: What about the inhibition of growth at 20 ppm [1] of the same molecule?
A: The inhibition of growth at 20 ppm was at least 80%.

Q: And the inhibition of growth at 20 ppm [2]?
A: The inhibition of growth at 20 ppm was at least 80%.

Q: With `CC1(C)CC(Cc2cccc(F)n2)N=C(c2cnc3c(F)c(F)ccc3c2)S1` (stereo not drawn) [E.02, 2-(7,8-difluoro-3-quinolyl)-4-[(6-fluoro-2-pyridyl)methyl]-6,6-dimethyl-4,5-dihydro-1,3-thiazine] as the molecule, how does the inhibition of growth at 20 ppm (Fusarium culmorum) read?
A: Its inhibition of growth at 20 ppm is at least 80%.

Q: What about the inhibition of growth at 6 ppm [3] of the same molecule?
A: Its inhibition of growth at 6 ppm is at least 80%.

Q: And the inhibition of growth at 20 ppm [1]?
A: The inhibition of growth at 20 ppm was at least 80%.

Q: And the inhibition of growth at 20 ppm [2]?
A: The inhibition of growth at 20 ppm was at least 80%.

Q: With `CC1(C)CC(Cc2cccnc2)N=C(c2cnc3c(F)cccc3c2)S1` (stereo not drawn) [E.20, 2-(8-fluoro-3-quinolyl)-6,6-dimethyl-4-(3-pyridylmethyl)-4,5-dihydro-1,3-thiazine] as the molecule, how does the inhibition of growth at 6 ppm [3] read?
A: Its inhibition of growth at 6 ppm is at least 80%.

Q: With `CC1(C)CC(Cc2ccsc2)N=C(c2cnc3c(F)cccc3c2)S1` (stereo not drawn) [E.23, 2-(8-fluoro-3-quinolyl)-6,6-dimethyl-4-(3-thienylmethyl)-4,5-dihydro-1,3-thiazine] as the molecule, how does the inhibition of growth at 20 ppm (Fusarium culmorum) read?
A: The inhibition of growth at 20 ppm was at least 80%.

Q: What about the inhibition of growth at 20 ppm [1] of the same molecule?
A: Its inhibition of growth at 20 ppm is at least 80%.

Q: What about the inhibition of growth at 20 ppm [2] of the same molecule?
A: The inhibition of growth at 20 ppm was at least 80%.

Q: What does the source list for `CC1(C)CC(Cc2nccs2)N=C(c2cnc3c(F)c(F)ccc3c2)O1` (stereo not drawn) [E.15, 2-(7,8-difluoro-3-quinolyl)-6,6-dimethyl-4-(thiazol-2-ylmethyl)-4,5-dihydro-1,3-oxazine]?
A: melting point: 105 to 113 °C; inhibition of growth at 6 ppm [3]: ≥ 80%; inhibition of growth at 20 ppm [1]: ≥ 80%; inhibition of growth at 20 ppm [2]: ≥ 80%

Q: For `CC1(C)CC(Cc2cscn2)N=C(c2cnc3c(F)c(F)ccc3c2)O1` (stereo not drawn) [E.13, 2-(7,8-difluoro-3-quinolyl)-6,6-dimethyl-4-(thiazol-4-ylmethyl)-4,5-dihydro-1,3-oxazine], which inhibition of growth at 6 ppm [3] is on record?
A: Its inhibition of growth at 6 ppm is at least 80%.

Q: What about the inhibition of growth at 20 ppm [1] of the same molecule?
A: The inhibition of growth at 20 ppm was at least 80%.

Q: And the inhibition of growth at 20 ppm [2]?
A: The inhibition of growth at 20 ppm was at least 80%.

Q: What does the source list for `CC1(C)CC(Cc2ccsc2)N=C(c2cnc3c(F)c(F)ccc3c2)S1` (stereo not drawn) [E.07, 2-(7,8-difluoro-3-quinoyl)-6,6-dimethyl-4-(3-thienylmethyl)-4,5-dihydro-1,3-thiazine]?
A: inhibition of growth at 20 ppm (Fusarium culmorum): ≥ 80%; inhibition of growth at 20 ppm [1]: ≥ 80%; inhibition of growth at 20 ppm [2]: ≥ 80%

Q: Which inhibition of growth at 20 ppm (Fusarium culmorum) does the source give for `CC1(C)CC(Cc2ccsc2)N=C(c2cnc3c(F)c(F)ccc3c2)[S+]1[O-]` (stereo not drawn) [E.25, 2-(7,8-difluoro-3-quinolyl)-6,6-dimethyl-4-(3-thienylmethyl)-4,5-dihydro-1,3-thiazine 1-oxide] here?
A: The inhibition of growth at 20 ppm was at least 80%.

Q: What about the inhibition of growth at 20 ppm [2] of the same molecule?
A: The inhibition of growth at 20 ppm was at least 80%.

Q: With `CC1(C)CC(Cc2nccs2)N=C(c2cnc3c(F)c(F)ccc3c2)S1` (stereo not drawn) [E.14, 2-(7,8-difluoro-3-quinolyl)-6,6-dimethyl-4-(thiazol-2-ylmethyl)-4,5-dihydro-1,3-thiazine] as the molecule, how does the inhibition of growth at 6 ppm [3] read?
A: Its inhibition of growth at 6 ppm is at least 80%.

Q: What about the inhibition of growth at 20 ppm [1] of the same molecule?
A: The inhibition of growth at 20 ppm was at least 80%.

Q: What about the inhibition of growth at 20 ppm [2] of the same molecule?
A: Its inhibition of growth at 20 ppm is at least 80%.
